Reference: article PMC6237158, “HPLC–UV assay for the evaluation of inhibitors of plasma amine oxidase using crude bovine plasma” (Journal of Enzyme Inhibition and Medicinal Chemistry, 2018)

Key:
PAO in bovine plasma [1] = biological target: T1, PAO in bovine plasma (Bos taurus, UniProt Q29437); experiment: Inhibitor screening with pre-incubation of bovine plasma with the inhibitor (HPLC-UV); assay type: biochemical; settings: for block of substrate transformation, bovine plasma: 10 µM, pre-incubation conditions; for IC50: with pre-incubation of enzyme and inhibitor (15 min, 37 °C), n = 3
T1 construct: crude bovine plasma can be used as enzyme source in this assay instead of the purified enzyme; tissue Coesfelder Fleischhandelsgesellschaft, Bernd Grewe (Coesfeld, Germany); host or cells: heparinised bovine blood plasma
T1 sequence (Q29437 17-762): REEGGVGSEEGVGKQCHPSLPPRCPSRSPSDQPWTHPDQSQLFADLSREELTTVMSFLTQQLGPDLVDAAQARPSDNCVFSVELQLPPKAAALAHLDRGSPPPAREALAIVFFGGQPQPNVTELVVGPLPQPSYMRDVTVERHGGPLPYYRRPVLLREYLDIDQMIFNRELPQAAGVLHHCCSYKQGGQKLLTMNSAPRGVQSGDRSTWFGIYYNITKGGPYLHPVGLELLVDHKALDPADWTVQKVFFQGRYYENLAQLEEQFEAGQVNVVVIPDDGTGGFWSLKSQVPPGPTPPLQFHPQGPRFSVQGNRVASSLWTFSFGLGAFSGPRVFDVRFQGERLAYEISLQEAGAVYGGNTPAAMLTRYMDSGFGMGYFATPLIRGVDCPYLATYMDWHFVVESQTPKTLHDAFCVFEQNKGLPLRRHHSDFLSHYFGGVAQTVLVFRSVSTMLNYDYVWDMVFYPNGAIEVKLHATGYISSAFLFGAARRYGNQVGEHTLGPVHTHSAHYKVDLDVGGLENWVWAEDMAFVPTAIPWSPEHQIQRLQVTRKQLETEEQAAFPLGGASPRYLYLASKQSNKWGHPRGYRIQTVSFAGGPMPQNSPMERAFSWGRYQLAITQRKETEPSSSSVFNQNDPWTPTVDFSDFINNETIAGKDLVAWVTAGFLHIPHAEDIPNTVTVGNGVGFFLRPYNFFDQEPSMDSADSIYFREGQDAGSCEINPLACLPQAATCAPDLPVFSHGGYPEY
Experimental: General procedure for inhibitor screening with pre-incubation of bovine plasma with the inhibitor. To a DMSO solution of the appropriate inhibitor (concentration variable) (2.5 µL) was added a dilution of bovine plasma in PBS (95 µL), prepared by mixing 89 volume parts of PBS with 6 volume parts of bovine plasma. The resulting mixture was pre-incubated at 37 °C for 15 min. Then the incubation was started at 37 °C by addition of a solution of the substrate 4 (10 mM) in DMSO (2.5 µL). After 45 min, the enzyme reaction was terminated by the addition of acetonitrile (100 µL). The samples were further treated and analysed as described above in the inhibition experiments done without pre-incubation. Controls (n = 3) and a blank were prepared analogously. The experiments using benzylamine (7) as substrate were carried out in the same way with the modifications that aliquots (150 µL) of the supernatants obtained after addition of acetonitrile and centrifugation were diluted with water (150 µL), and acetonitrile/aqueous ammonium acetate solution (10 mM, pH 6) (45:55, v/v) was used as eluent at a detection wavelength of 250 nm.

purified PAO = biological target: T2, purified PAO (Bos taurus, UniProt Q29437); experiment: Inhibition of purified PAO after pre-incubation of enzyme with inhibitor; assay type: biochemical, bovine; settings: 10 µM; pre-incubation conditions
T2 construct: we used the enzyme isolated and purified from bovine plasma; host or cells: bovine plasma
T2 sequence (Q29437 17-762): T1 sequence (Q29437 17-762)
From the text: 2-(4-Phenylphenyl)acetohydrazide (16) is known to inhibit PAO by forming covalent bonds with the cofactor topaquinone.
Finally, we wanted to confirm that the amine oxidases MAO A, MAO B, and DAO are not involved in substrate conversion by bovine plasma using specific inhibitorsof these enzymes.

PAO in bovine plasma [2] = biological target: T1, PAO in bovine plasma; experiment: Conversion of amine substrates by bovine plasma (HPLC-UV); assay type: biochemical; settings: substrate 250 µM, 6 µL bovine plasma in final volume 100 µL; mean ± SD, n = 3
Experimental: Determination of the conversion rates of different amine substrates by bovine plasma. The conversion rates of the amine substrates 1–7 to the corresponding aldehydes 8–14 by bovine plasma was measured as described previously, with the modification that the solution of the isolated PAO in PBS (0.19 mg/mL) (95 µL) was replaced by PBS (89 µL) and bovine plasma (6 µL).

purified bovine PAO = biological target: T3, purified bovine PAO (Bos taurus, UniProt Q29437); set-up: method as in PMID 27129976, PMID 29550344; settings: substrate 250 µM, 18 µg purified PAO in final volume 100 µL; mean ± SD, n = 3; cited from earlier work
T3 construct: bovine PAO purified from bovine plasma; purchased Abnova, Taipei, Taiwan delivered via Biozol, Eching, Germany; host or cells: bovine plasma
T3 sequence (Q29437 17-762): T1 sequence (Q29437 17-762)

PAO in bovine plasma [3] = biological target: T1, PAO in bovine plasma; experiment: Inhibitor screening without pre-incubation of bovine plasma with the inhibitor (HPLC-UV); assay type: biochemical; settings: without pre-incubation of enzyme and inhibitor, n = 3
Experimental: Determination of the IC50-values of the PAO inhibitor 2-(4-phenylphenyl)acetohydrazide (16) with bovine plasma using different substrates.
General procedure for inhibitor screening without pre-incubation of bovine plasma with the inhibitor. A mixture of a DMSO solution of 4 (10 mM) (2.5 µL), a DMSO solution of the appropriate inhibitor (concentration variable) (2.5 µL) and PBS buffer (pH 7.4) (89 µL) was treated with bovine plasma (6 µL). After incubation at 37 °C for 45 min, the enzyme reaction was terminated by the addition of acetonitrile (100 µL). The sample was cooled in an ice bath for 10 min and centrifuged at 12,000 × g and 10 °C for 5 min. An aliquot of the supernatant (150 µL) was diluted with aqueous TRIS buffer (100 mM, pH 8.5 at 20 °C) (150 µL), allowed to stand at room temperature for 30 min, and analysed by HPLC. The HPLC–UV-system consisted of a Thermo Scientific Dionex UltiMate 3000 system including an autosampler and a variable wavelength detector (ThermoFisher Scientific, Germering, Germany). Separation was achieved on a Luna 3 u C8(2) analytical column (3 mm inside diameter× 150 mm, particle size 3 µm) (Phenomenex, Aschaffenburg, Germany) protected with a Phenomenex Phenyl guard column (3 mm inside diameter ×4 mm). The injection volume was 50 µL. Temperature of the autosampler was set to 10 °C, the temperature of the column oven was 20 °C. HPLC analysis was run isocratically using acetonitrile/aqueous TRIS buffer (50 mM, pH 8.5 at 20 °C) (35:65, v/v) as eluent at a flow rate of 0.4 mL/min. […] Controls with DMSO (2.5 µL) instead of a DMSO solution of the inhibitor (2.5 µL) were prepared in the same manner in parallel (n = 3). Furthermore, a blank incubation, in which the enzyme solution was replaced by the buffer used for dissolving the enzyme, was carried out. The relative inhibition values were determined at different inhibitor concentrations and calculated as the ratio of the areas of the 1,3-oxazolidine 15 peaks formed in presence and absence of the test compounds (corrected by the blank value). […] The experiments using benzylamine (7) as substrate were carried out in the same way with the modifications that aliquots (150 µL) of the supernatants obtained after addition of acetonitrile and centrifugation were diluted with water (150 µL) and acetonitrile/aqueous ammonium acetate solution (10 mM, pH 6) (45:55, v/v) was used as eluent at a detection wavelength of 250 nm.

DAO = tested on: DAO; set-up: method as in PMID 29550344; settings: 10 µM; pre-incubation conditions; cited from earlier work
MAO A = tested on: MAO A; set-up: method as in PMID 29550344; settings: 0.1 µM; pre-incubation conditions; cited from earlier work

SMILES | Conversion of substrate, Bovine plasma (PAO in bovine plasma [2]) [%] | Conversion of substrate, Purified PAO (purified bovine PAO) [%] | other results
C#CCN(C)[C@H](C)Cc1ccccc1 [selegiline] |  |  | block of substrate transformation, bovine plasma (PAO in bovine plasma [1]): neither of these compounds blocked the substrate transformation; block of substrate transformation, purified PAO (purified PAO): neither of these compounds blocked the substrate transformation
NCCCCCCCCn1nnc(-c2ccccc2)n1 [Compound 6, 8-(5-Phenyl-2H-tetrazol-2-yl)octan-1-amine] | 26 ± 1.8 | 25 ± 1.2 | 
NCc1ccccc1 [Compound 7, Benzylamine] | 30 ± 2.0 | 20 ± 2.1 | 
NNC(=O)Cc1cccc(-c2ccccc2)c1 [Compound 18, 2-(3-Phenylphenyl)acetohydrazide] |  |  | IC50 (PAO in bovine plasma [1]; substrate benzylamine): 240 ± 30 nM; IC50 (PAO in bovine plasma [1]; substrate hexan-1-amine 4): 380 ± 20 nM; IC50 (PAO in bovine plasma [3]; substrate benzylamine (7)): 620 ± 50 nM; IC50 (PAO in bovine plasma [3]; substrate hexan-1-amine 4): 20000 ± 1000 nM
NCCCn1nnc(-c2ccccc2)n1 [Compound 1, 3-(5-Phenyl-2H-tetrazol-2-yl)propan-1-amine] | 5 ± 0.8 | 12 ± 0.8 | 
NCCCCn1nnc(-c2ccccc2)n1 [Compound 2, 4-(5-Phenyl-2H-tetrazol-2-yl)butan-1-amine] | 66 ± 5.6 | 55 ± 2.6 | 
NC(=Nc1ccccc1)NC(=O)c1nc(Cl)c(N)nc1N [phenamil] |  |  | block of substrate transformation, bovine plasma (PAO in bovine plasma [1]): neither of these compounds blocked the substrate transformation; block of substrate transformation, purified PAO (purified PAO): neither of these compounds blocked the substrate transformation; inhibition of DAO (DAO): 43%
NCCCCCn1nnc(-c2ccccc2)n1 [Compound 3, 5-(5-Phenyl-2H-tetrazol-2-yl)pentan-1-amine] | 51 ± 4.3 | 45 ± 1.3 | 
NCCCCCCCn1nnc(-c2ccccc2)n1 [Compound 5, 7-(5-Phenyl-2H-tetrazol-2-yl)heptan-1-amine] | 23 ± 2.1 | 30 ± 1.1 | 
NCCCCCCn1nnc(-c2ccccc2)n1 [Compound 4, 6-(5-Phenyl-2H-tetrazol-2-yl)hexan-1-amine] | 51 ± 1.5 | 57 ± 1.4 | 
C#CCN(C)CCCOc1ccc(Cl)cc1Cl [clorgiline] |  |  | block of substrate transformation, bovine plasma (PAO in bovine plasma [1]): neither of these compounds blocked the substrate transformation; block of substrate transformation, purified PAO (purified PAO): neither of these compounds blocked the substrate transformation; reduction of MAO A activity (MAO A): more than 95%
